These results are taken from PubChem BioAssay AID206 (DTP/NCI, 2004).

“And” between values parts separate entries of the source, which are not always exact repeats. Equal values may be shown once. Inconclusive results are not listed. Positions of bridges follow the written chain, without caps; N, C: chain ends. Non-standard residues stand in square brackets, D forms with d. Residues, ends and D or L forms follow the SMILES beside them. Chains are numbered I, II in the order given. *: point of attachment. Quinoxaline2carbonyl = O=C(c1cnc2ccccc2n1)*; NMeV = CN[CH](C(=O)O)C(C)C; NMeC = CN[CH](CS)C(=O)O

The assay has as its system nude mice, HT29 intrarenal xenograft, tumor weight T/C. Kind of assay: NCI In Vivo Anticancer Drug Screen. Data for tumor model HT29;CX-1 Human Adenocarcinoma (MER+) (intrarenal inoculation) in NU/NU Swiss (nude) mice. The settings on record: endpoint: mean tumor weight change, higher = larger tumour. The gist of the method:
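Tumor-bearing mice received test compound or vehicle, and tumor size or survival was recorded. Values are the treated-group measurement divided by the vehicle-treated control measurement.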

Where [1] appears, read: dose: 150.0 mg/kg/injection, schedule: Q04DX004 (sc), vehicle: suspension in saline.
Where [2] appears, read: dose: 1200.0 mg/kg/injection, schedule: Q04DX004 (sc), vehicle: suspension in saline.
Where [3] appears, read: dose: 300.0 mg/kg/injection, schedule: Q04DX004 (sc), vehicle: suspension in saline.
Setting [4] is: dose: 600.0 mg/kg/injection, schedule: Q04DX004 (sc), vehicle: suspension in saline.
[5] abbreviates: dose: 100.0 mg/kg/injection, schedule: Q04DX004 (sc), vehicle: Klucel (hydroxypropylcellulose) (HPC).
Setting [6] is: dose: 200.0 mg/kg/injection, schedule: Q04DX004 (sc), vehicle: Klucel (hydroxypropylcellulose) (HPC).
The mark [7] stands for this setting: dose: 400.0 mg/kg/injection, schedule: Q04DX004 (sc), vehicle: Klucel (hydroxypropylcellulose) (HPC).

Turning to `C/C=C1\C[C@@H]2C(OC)Nc3cc(O)c(OC)cc3C(=O)N2C1` (some centres undefined), the T/C by setting is: (dose: 0.25 mg/kg/injection, schedule: Q04DX004 (sc), vehicle: saline) 113 % of control; (dose: 0.5 mg/kg/injection, schedule: Q04DX004 (sc), vehicle: saline) 93 % of control; (dose: 2.0 mg/kg/injection, schedule: Q04DX004 (sc), vehicle: saline) 75 % of control.

On to `O=S(=O)(O)O.[NH-]C1CCCCC1[NH-].[Pt+2]` (centres undefined), for which the T/C (dose: 0.62 mg/kg/injection, schedule: Q01DX010 (sc), vehicle: dextrose) was 21 % of control.

In the case of `CCCCCCCCSC1=C(Cl)C(=O)C(OC)=C(OC)C1=O`, the T/C (dose: 18.0 mg/kg/injection, schedule: Q04DX004 (sc), vehicle: saline with Tween-80) is 96 % of control; the T/C (dose: 36.0 mg/kg/injection, schedule: Q04DX004 (sc), vehicle: saline with Tween-80) is 82 % of control; the T/C (dose: 72.0 mg/kg/injection, schedule: Q04DX004 (sc), vehicle: saline with Tween-80) is 118 % of control; the T/C (dose: 144.0 mg/kg/injection, schedule: Q04DX004 (sc), vehicle: saline with Tween-80) was 59 % of control.

As to `C[C@@]1(CO)[C@H](O)CC[C@@]2(C)[C@H]1CC[C@H]1C[C@@H]3C[C@@]12CC[C@@]3(O)COC(=O)CN`, the T/C runs as follows: (dose: 8.0 mg/kg/injection, schedule: Q04DX004 (sc), vehicle: saline + alcohol) 226 % of control; (dose: 16.0 mg/kg/injection, schedule: Q04DX004 (sc), vehicle: saline + alcohol) 106 % of control; (dose: 32.0 mg/kg/injection, schedule: Q04DX004 (sc), vehicle: saline + alcohol) 94 % of control; (dose: 64.0 mg/kg/injection, schedule: Q04DX004 (sc), vehicle: saline + alcohol) 218 % of control; (dose: 500.0 micrograms/kg/injection, schedule: Q04DX004 (sc), vehicle: saline + alcohol) 97 % of control; (dose: 1000.0 micrograms/kg/injection, schedule: Q04DX004 (sc), vehicle: saline + alcohol) 108 % of control. The T/C was 101 % of control (dose: 2000.0 micrograms/kg/injection, schedule: Q04DX004 (sc), vehicle: saline + alcohol) and 73 % of control (dose: 4000.0 micrograms/kg/injection, schedule: Q04DX004 (sc), vehicle: saline + alcohol).

For `COC(=O)Nc1cn2cc(C(=O)c3cccs3)ccc2n1`, the T/C is 91 % of control (dose: 75.0 mg/kg/injection, schedule: Q04DX004 (sc), vehicle: Klucel (hydroxypropylcellulose) (HPC)); 65 % of control (dose: 150.0 mg/kg/injection, schedule: Q04DX004 (sc), vehicle: Klucel (hydroxypropylcellulose) (HPC)); 50 % of control (dose: 300.0 mg/kg/injection, schedule: Q04DX004 (sc), vehicle: Klucel (hydroxypropylcellulose) (HPC)); 54 % of control and 76 % of control (dose: 600.0 mg/kg/injection, schedule: Q04DX004 (sc), vehicle: Klucel (hydroxypropylcellulose) (HPC)); 67 % of control (dose: 1200.0 mg/kg/injection, schedule: Q04DX004 (sc), vehicle: Klucel (hydroxypropylcellulose) (HPC)); 36 % of control (dose: 2400.0 mg/kg/injection, schedule: Q04DX004 (sc), vehicle: Klucel (hydroxypropylcellulose) (HPC)).

Take `Cc1cc(NS(=O)(=O)c2ccc(N=Nc3cc(N=Nc4ccc(S(=O)(=O)Nc5cc(C)nc(C)n5)cc4)c4c(NC(=O)C(Cl)Cl)cccc4c3OC(=O)C(Cl)Cl)cc2)nc(C)n1` (tested in a mixture with another compound): the T/C under setting [1] was 204 % of control and the T/C under setting [2] was 72 % of control.

Turning to `CN(C)CCN1C(=O)c2cccc3cc(N)cc(c23)C1=O`, for the setting “dose: 64.0 mg/kg/injection, schedule: Q04DX004 (sc), vehicle: saline with Tween-80”, the T/C is 70 % of control.

With `COc1cccc2c1C(=O)c1c(O)c3c(c(O)c1C2=O)C[C@@](O)(C(=O)COC(=O)c1cccnc1)C[C@@H]3OC1CC(N)C(O)C(C)O1` (some centres undefined), for the setting “dose: 6.0 mg/kg/injection, schedule: Q04DX004 (sc), vehicle: saline”, the T/C is 44 % of control and 65 % of control.

Take `Nc1ncn(C2OC(CO)C(O)C2O)c(=O)n1` (centres undefined): the T/C reads like this: (dose: 0.19 mg/kg/injection, schedule: Q01DX010 (sc), vehicle: saline) 212 % of control; (dose: 0.38 mg/kg/injection, schedule: Q01DX010 (sc), vehicle: saline) 172 % of control; (dose: 0.75 mg/kg/injection, schedule: Q01DX010 (sc), vehicle: saline) 96 % of control; (dose: 5.0 mg/kg/injection, schedule: Q04DX004 (sc), vehicle: saline) 66 % of control; (dose: 10.0 mg/kg/injection, schedule: Q04DX004 (sc), vehicle: saline) 48 % of control and 49 % of control; (dose: 100.0 mg/kg/injection, schedule: Q04DX004 (sc), vehicle: saline) 62 % of control. In addition, the T/C runs as follows: (dose: 200.0 mg/kg/injection, schedule: Q04DX004 (sc), vehicle: saline) 85 % of control; (dose: 200.0 mg/kg/injection, schedule: Q04DX004 (sc), vehicle: suspension in saline) 98 % of control; under setting [3], 24 % of control; (dose: 400.0 mg/kg/injection, schedule: Q04DX004 (sc), vehicle: saline) 38 % of control; under setting [4], 79 % of control; (dose: 800.0 mg/kg/injection, schedule: Q04DX004 (sc), vehicle: saline) 7 % of control. The T/C is, setting by setting: (dose: 800.0 mg/kg/injection, schedule: Q04DX004 (sc), vehicle: suspension in saline) 29 % of control and 30 % of control; under setting [2], 7 % of control; (dose: 1600.0 mg/kg/injection, schedule: Q04DX004 (sc), vehicle: suspension in saline) 11 % of control.

In the case of `CCc1c(CC(=O)O)c2cc(C)ccc2n1Cc1ccc(Cl)cc1`, the T/C runs as follows: under setting [5], 77 % of control; under setting [6], 74 % of control; under setting [7], 86 % of control; (dose: 800.0 mg/kg/injection, schedule: Q04DX004 (sc), vehicle: Klucel (hydroxypropylcellulose) (HPC)) 97 % of control.

As to `CC1=C(/C=C/C(C)=C/C=C/C(C)=C/C(=O)O)C(C)(C)CCC1`, the T/C by setting is: (dose: 12.5 mg/kg/injection, schedule: Q01DX010 (sc), vehicle: saline with Tween-80) 153 % of control; (dose: 25.0 mg/kg/injection, schedule: Q01DX010 (sc), vehicle: saline with Tween-80) 176 % of control; (dose: 50.0 mg/kg/injection, schedule: Q01DX010 (sc), vehicle: saline with Tween-80) 123 % of control.

As for `CC(=O)OCC1OC([S-])C(OC(C)=O)C(OC(C)=O)C1OC(C)=O.CC[PH+](CC)CC.CC[PH+](CC)CC.[Au].[Au]` (centres undefined), the T/C (dose: 5.0 mg/kg/injection, schedule: Q04DX004 (sc), vehicle: Klucel (hydroxypropylcellulose) (HPC)) was 177 % of control and the T/C (dose: 10.0 mg/kg/injection, schedule: Q04DX004 (sc), vehicle: Klucel (hydroxypropylcellulose) (HPC)) is 113 % of control.

On to `CC1NC(=O)C(NC(=O)c2cnc3ccccc3n2)COC(=O)C(C(C)C)N(C)C(=O)C2CSSCC(C(=O)N(C)C(C(C)C)C(=O)OCC(NC(=O)c3cnc4ccccc4n3)C(=O)NC(C)C(=O)N2C)N(C)C1=O` (centres undefined) (I: Quinoxaline2carbonyl-SA[NMeC][NMeV] / II: Quinoxaline2carbonyl-SA[NMeC][NMeV]; ester I:1-II:C, I:C-II:1; disulfide I:3-II:3; configuration not given here), for which the T/C under setting [5] was 115 % of control, the T/C under setting [6] is 96 % of control and the T/C under setting [7] was 74 % of control.

Take `CNc1nc(N(C)C)nc(N(C)C)n1`: the T/C by setting is: (dose: 12.5 mg/kg/injection, schedule: Q04DX004 (sc), vehicle: water) 54 % of control; (dose: 15.0 mg/kg/injection, schedule: Q01DX010 (sc), vehicle: water) 89 % of control; (dose: 25.0 mg/kg/injection, schedule: Q04DX004 (sc), vehicle: water) 75 % of control; (dose: 50.0 mg/kg/injection, schedule: Q04DX004 (sc), vehicle: water) 51 % of control; (dose: 100.0 mg/kg/injection, schedule: Q04DX004 (sc), vehicle: water) 51 % of control.

Consider `C=CS(C=C)=NS(=O)(=O)c1ccc(C)cc1`, for which the T/C is, setting by setting: (dose: 18.75 mg/kg/injection, schedule: Q04DX004 (sc), vehicle: Klucel (hydroxypropylcellulose) (HPC)) 91 % of control; (dose: 37.5 mg/kg/injection, schedule: Q04DX004 (sc), vehicle: Klucel (hydroxypropylcellulose) (HPC)) 60 % of control.

As for `COC1C(/C=C/C(C)=O)OC2OC(C)(C)OC21` (centres undefined), the T/C by setting is: (dose: 75.0 mg/kg/injection, schedule: Q04DX004 (sc), vehicle: suspension in saline) 74 % of control; under setting [1], 106 % of control; under setting [3], 54 % of control; under setting [4], 20 % of control.
